Earlier results on one compound are cited in US20160082019A1, “Drug Combinations to Treat Cancer” (EXELIXIS, INC., priority 2013, published 2016).

The conditions of this series: cabozantinib alone; in some cases normalized; independent of PSA declines.

Regarding `COc1cc2nccc(Oc3ccc(NC(=O)C4(C(=O)Nc5ccc(F)cc5)CC4)cc3)c2cc1OC` [Cabozantinib, N-(4-{[6,7-bis(methyloxy)quinolin-4-yl]oxy}phenyl)-N′-(4-fluorophenyl)cyclopropane-1,1-dicarboxamide], the “uptake on bone scans” value is reported as “decrease uptake on bone scans”.
